For four compounds, IC50 results are on record in US5773459A, “Urea- and thiourea-type compounds” (Sugen, Inc., priority 1995, dated 1998).

Holding throughout (format): cell-based
The target of assay [1] is T1, Insulin Receptor (Homo sapiens, UniProt P06213).
T1 construct: host or cells: H25 (NIH3T3)
Put plainly: Cellular Insulin Receptor ELISA. How it is done: Cellular Insulin Receptor ELISA (Version I)
The following protocol describes the cell line, reagents and procedures used to measure phosphotyrosine level on Insulin Receptor, which indicates Insulin Receptor tyrosine kinase activity.
(2). H25 cells are grown in an incubator with 5% CO2 at 37° C. The growth media is DMEM+10% FBS (heat inactivated)+2 mM L-Glutamine.
(3). For ELISA plate coating, the monoclonal anti-IR antibody named BBE is used. Antibodies are purified by the Enzymology Lab, SUGEN, Inc.
(2). […] Incubate for 1 day then replace medium to 0.01% serum medium (90/ul) and incubate in 5% CO2 and 37° C. overnight.
(§1) 2. ELISA Plate Coating and Blocking
(2). Remove the coating solution, and replace with 100 ul Blocking Buffer, and shake for 30 minutes. Remove the blocking buffer and wash the plate just before adding lysate.
(1). The drugs are tested in serum-free condition.
(2). Dilute drug stock (in 100% DMSO) 1:10 with DMEM in 96-well poly-propylene plate, and transfer 10 ul/well of this solution to the cells to achieve final drug dilution 1:100, and final DMSO concentration of 1.0%. Incubate the cells in 5% CO2 at 37° C. for 2 hours.
(3). Prepare fresh cell lysis buffer (HNTG*) HNTG 2 ml EDTA 0.1 ml Na3VO4 0.1 ml Na4P2O7 0.1 ml H20 7.3 ml HNTG* 10 ml.
(4). After drug incubation for two hours, transfer 10 ul/well of 1 μM Insulin in PBS to the cells (Final Conc=100 nM), and incubate at 5% CO2 at 37° C. for 10 minutes.
(5). Remove media and add 100ul/well HNTG* and shake for 10 minutes. Look at cells under microscope to see if they are adequately lysed.
(6). Use a 12-channel pipette to scrape the cells from the plate, and homogenize the lysate by repeat aspiration and dispense. Transfer all the lysate to the antibody coated ELISA plate [V.2.(2)], and shake for 1 hour.
(7). Remove the lysate, wash the plate, transfer anti-pTyr (1:3,000 with TBST) 100 ul/well, and shake for 30 minutes.
(8). Remove anti-pTyr, wash the plate, transfer detection antibody (1:3,000 with TBST) 100 ul/well, and shake for 30 minutes.
(9). […]

In assay [2] the target is T2, HER2 (Homo sapiens, UniProt P04626).
T2 construct: a human breast tumor cell line which expresses high levels of HER2 kinase; host or cells: BT-474 human breast tumor cells
Put plainly: HER2-ELISA, HER2-BT474 assay measuring whole cell HER2 activity. The method, then: Growth assays were carried out using human mammary epithelial SKBR3 (ATCC HTB30) cells (SKBR3 cells over-express HER2), SKOV3 (ATCC HTB77) human ovarian cancer cell line (SKOV3 cells also over-express HER2), A431 cells (A431 cells over-express EGFR) MCF7 human breast carcinoma cells, MCF7 cells overexpressing the HER2 kinase (MCF7-HER2), NIH3T3 cells, and NIH3T3 cells overexpressing the HER2 kinase (3T3-HER2.
HER2-BT474 assays measuring whole cell HER2 activity was carried out as described below:
2. […] The growth media is RPMI+10% FBS+GMS-G (Gibco supplement)+Glutamine.
3. A monoclonal anti-HER2 antibody is used in ELISA.
Incubate the cells in 5% CO2 at 37° C. overnight.
as §1
The antibody coated plates can be used up to 2 weeks, when stored at 4° C.
(b) On the day of use, remove the coating solution, replace with 200 μl of Blocking Buffer, shake the plate, and then remove the blocking buffer and wash the plate just before adding lysate.
(a) […] the drugs in serum-free condition. Before adding drugs, the old media
(b) Dilute drug stock (in 100% DMSO) 1:10 with RPMI, and transfer 10 μl/well of this solution to the cells to achieve a final drug DMSO concentration at 1%. Incubate the cells in 5% CO2 at 37° C.
(c) Prepare fresh cell lysis buffer (HNTG*)
(d) After drug preincubation for two hours remove all the solution from the plate, transfer HNTG* 100 μl/well to the cells, and shake for 10 minutes.
(e) Use a 12-channel pipette to scrape the cells from the plate, and homogenize the lysate by repeat aspiration and dispensing. Transfer all the lysate to the ELISA plate and shake for 1 hour.
(f) Remove the lysate, wash the plate, add anti-pTyr (1:3,000 with TBST) 100 μl/well, and shake for 30 minutes.
(g) Remove anti-pTyr, wash the plate, add goat anti-rabbit IgG conjugated antibody (1:5,000 with TBST) 100 μl/well, and shake for 30 minutes.
(h) Remove anti-rabbit IgG antibody, wash the plate, and add fresh ABTS/H2 O2 (1.2 μl 30% H2 O2 in 10 ml ABTS) 100 μl/well to the plate to start color development, which usually takes 20 minutes.
A general note: In an ELISA, binding on a coated surface is turned into a signal by an enzyme label.

Assay [3] deals with NIH3T3 cells overexpressing the HER2 kinase (3T3-HER2). Put plainly: 3T3 Growth Assay (HER2-overexpressing 3T3 cells, SRB). Conditions: Mus musculus. From the text: The following examples illustrate the ability of the exemplary compounds to inhibit receptor tyrosine kinases, such as HER2 and/or EGFR. The following target cells were used for cellular kinase assays: NIH3T3 clone C7 (Honegger et al., supra) engineered to over-express human EGF receptor; NIH3T3 cells engineered to over-express a chimeric receptor containing the EGFR extracellular domain and the HER2 intracellular kinase domain; the human mammary carcinoma line BT474 (ATCC HTB2) expressing HER2; and the human glioblastoma line U1242 that expresses PDGFR-beta. Growth assays were carried out using human mammary epithelial SKBR3 (ATCC HTB30) cells (SKBR3 cells over-express HER2), SKOV3 (ATCC HTB77) human ovarian cancer cell line (SKOV3 cells also over-express HER2), A431 cells (A431 cells over-express EGFR) MCF7 human breast carcinoma cells, MCF7 cells overexpressing the HER2 kinase (MCF7-HER2), NIH3T3 cells, and NIH3T3 cells overexpressing the HER2 kinase (3T3-HER2.
The 3T3 growth assay was carried out as follows: […]
(1) HER2C7 (engineered to express HER2) and NIH3T3C7 (as the control) cells are used for this assay. […] Cells are incubated at 37° C., 5% CO2 overnight to allow for cell attachment to the plate;
(2) The […] compound is added to the cells at day 2. […] A total of 100 μl/well medium of the diluted compounds is added into the cells. The total volume of each well is 200 μl. Quadruplicates (wells) and 11 concentration points are applied to each compound tested.
(3) After the cells are treated with the compound for 4 days, the cells are washed with PBS and fixed with 200 μl/well ice-cold 10% TCA for one hour at 0°-5° C. condition.
(4) Remove TCA and rinse wells 5 times with deionized water. Dry plates upside down with paper towels. Stain cells with 0.4% SRB at 100 μl well for 10 minutes.
(5) Pour off SRB and rinse plate 5 times with 1% acetic acid. Dry plate completely.
(6) Solubilize the dye with 10 mM Tris-base at 100 μl/well for 10 minutes on a shaker.
(7) Read the plate at dual wavelengths at 570 nm and 630 nm on Dynatech Elisa plate reader.

Setting [4] is: H25 cells (NIH3T3 overexpressing Insulin Receptor), insulin stimulated, read-out: ELISA DATA: IR.
Setting [5] is: BT474 cells, read-out: ELISA DATA: HER2 - (BT474).
The mark [6] stands for this setting: read-out: GROWTH DATA: 3T3/HER2 2% FBS.
The mark [7] stands for this setting: read-out: GROWTH DATA: 3T3/HER2 10% FBS.

Each structure is given as a SMILES string. Where two headings read alike, the source gives them in different places.

T1 sequence (P06213 28-1382, species assumed): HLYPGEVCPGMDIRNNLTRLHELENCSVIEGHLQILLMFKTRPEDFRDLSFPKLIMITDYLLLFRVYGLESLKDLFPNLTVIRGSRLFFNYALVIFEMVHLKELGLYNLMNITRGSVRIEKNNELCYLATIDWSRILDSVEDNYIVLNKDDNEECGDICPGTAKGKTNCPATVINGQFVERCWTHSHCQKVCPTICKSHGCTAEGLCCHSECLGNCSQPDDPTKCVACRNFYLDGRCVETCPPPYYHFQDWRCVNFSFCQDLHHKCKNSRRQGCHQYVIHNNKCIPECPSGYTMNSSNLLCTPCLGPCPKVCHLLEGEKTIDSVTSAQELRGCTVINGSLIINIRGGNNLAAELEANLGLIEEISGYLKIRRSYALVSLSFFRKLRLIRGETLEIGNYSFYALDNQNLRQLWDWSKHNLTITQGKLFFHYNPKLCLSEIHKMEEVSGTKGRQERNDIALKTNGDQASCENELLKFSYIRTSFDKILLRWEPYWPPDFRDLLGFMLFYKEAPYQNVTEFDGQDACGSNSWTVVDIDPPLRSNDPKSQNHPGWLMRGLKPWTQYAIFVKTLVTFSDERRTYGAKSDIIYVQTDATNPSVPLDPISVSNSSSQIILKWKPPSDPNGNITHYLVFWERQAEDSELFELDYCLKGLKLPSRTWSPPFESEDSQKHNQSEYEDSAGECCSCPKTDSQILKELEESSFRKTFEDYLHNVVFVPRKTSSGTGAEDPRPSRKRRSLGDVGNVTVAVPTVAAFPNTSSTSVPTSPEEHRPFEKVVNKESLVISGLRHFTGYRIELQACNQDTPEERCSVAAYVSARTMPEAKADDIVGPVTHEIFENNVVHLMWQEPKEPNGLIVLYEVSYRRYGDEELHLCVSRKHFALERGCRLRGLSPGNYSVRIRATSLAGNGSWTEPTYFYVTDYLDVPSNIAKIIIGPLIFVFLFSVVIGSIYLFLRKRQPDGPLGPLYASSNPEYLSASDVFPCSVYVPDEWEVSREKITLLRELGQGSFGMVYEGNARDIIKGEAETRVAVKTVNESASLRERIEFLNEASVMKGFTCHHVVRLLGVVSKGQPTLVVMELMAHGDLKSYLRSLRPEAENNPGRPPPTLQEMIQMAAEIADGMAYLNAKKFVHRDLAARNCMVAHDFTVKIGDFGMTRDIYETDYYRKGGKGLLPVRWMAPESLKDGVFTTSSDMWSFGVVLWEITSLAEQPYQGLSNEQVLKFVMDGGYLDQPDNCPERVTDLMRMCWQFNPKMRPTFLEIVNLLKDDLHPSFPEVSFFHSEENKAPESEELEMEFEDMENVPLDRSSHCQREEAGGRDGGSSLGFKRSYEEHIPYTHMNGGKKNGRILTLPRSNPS
T2 sequence (P04626 23-1255): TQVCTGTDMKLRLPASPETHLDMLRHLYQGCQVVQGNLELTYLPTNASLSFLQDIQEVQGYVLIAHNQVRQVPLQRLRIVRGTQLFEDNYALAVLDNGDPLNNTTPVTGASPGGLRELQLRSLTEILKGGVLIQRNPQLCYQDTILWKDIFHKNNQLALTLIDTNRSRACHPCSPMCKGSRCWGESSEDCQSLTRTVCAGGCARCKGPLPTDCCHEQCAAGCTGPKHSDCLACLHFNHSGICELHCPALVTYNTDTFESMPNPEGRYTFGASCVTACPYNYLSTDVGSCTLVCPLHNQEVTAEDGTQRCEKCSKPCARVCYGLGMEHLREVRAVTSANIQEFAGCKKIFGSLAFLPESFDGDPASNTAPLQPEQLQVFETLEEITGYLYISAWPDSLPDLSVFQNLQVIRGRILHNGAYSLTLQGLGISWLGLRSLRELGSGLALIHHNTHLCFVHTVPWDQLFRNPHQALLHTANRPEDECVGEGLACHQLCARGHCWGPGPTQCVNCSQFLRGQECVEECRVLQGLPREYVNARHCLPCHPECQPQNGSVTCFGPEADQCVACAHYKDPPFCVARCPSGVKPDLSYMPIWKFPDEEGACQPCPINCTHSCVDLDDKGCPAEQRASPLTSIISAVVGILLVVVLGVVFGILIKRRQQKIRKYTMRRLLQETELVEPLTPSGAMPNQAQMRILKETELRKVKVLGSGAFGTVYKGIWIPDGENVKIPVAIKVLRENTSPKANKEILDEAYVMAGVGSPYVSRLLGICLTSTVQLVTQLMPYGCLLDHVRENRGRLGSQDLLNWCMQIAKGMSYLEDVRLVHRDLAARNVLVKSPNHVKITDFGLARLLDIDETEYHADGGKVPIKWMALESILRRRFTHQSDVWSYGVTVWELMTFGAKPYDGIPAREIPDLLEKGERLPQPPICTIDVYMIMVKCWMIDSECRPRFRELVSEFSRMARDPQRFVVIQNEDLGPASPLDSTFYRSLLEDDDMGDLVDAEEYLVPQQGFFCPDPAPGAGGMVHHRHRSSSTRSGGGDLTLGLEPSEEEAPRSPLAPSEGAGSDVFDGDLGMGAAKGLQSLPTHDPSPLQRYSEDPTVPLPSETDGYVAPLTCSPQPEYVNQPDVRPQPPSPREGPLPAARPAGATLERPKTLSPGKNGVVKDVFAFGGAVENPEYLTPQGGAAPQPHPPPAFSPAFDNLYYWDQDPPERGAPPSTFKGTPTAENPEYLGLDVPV

Turning to `CC(C)S(=O)(=O)c1csc(NC(=O)Nc2ccc(C(C)(C)C)cc2)c1Cl` [Example Z1, N-[3-Chloro-4-(isopropylsulfonyl)thien-2-yl]-N'-(4-t-butylphenyl)urea], the IC50 in assay [1] (setting [4]) was more than 100 µM; in assay [2] (setting [5]), 11.8 µM; in assay [3] (setting [6]), 1 µM; in assay [3] (setting [7]) it was 15 µM.

With `CC(C)S(=O)(=O)c1csc(NC(=O)Nc2cc(C(F)(F)F)cc(C(F)(F)F)c2)c1Cl` [Example Z2, N-[3-Chloro-4-(isopropylsulfonyl)thien-2-yl]-N'-(3,5-di-trifluoromethylphenyl)urea], the IC50 in assay [1] (setting [4]) is more than 100 µM; in assay [2] (setting [5]), 3.2 µM; in assay [3] (setting [6]), 0.6 µM; in assay [3] (setting [7]), 18 µM.

In the case of `O=C(Nc1ccc(SC(F)(F)F)cc1)Nc1ccc(Oc2ccc(Cl)cc2Cl)nc1` [Example Z3], the IC50 was more than 100 µM in assay [1], 9.9 µM in assay [2], 0.35 µM in assay [3] (setting [6]) and 18 µM in assay [3] (setting [7]).

With `N#Cc1ccc(NC(=S)Nc2ccc(S(=O)(=O)N3CCCCC3)cc2)cc1` [Example Z4, N-(4-Cyanophenyl)-N'-[4-[(piperid-1-yl)sulfonyl]phenyl]thiourea], in assay [2] (setting [5]), the IC50 came out at 9.3 µM.
